SMILES strings stand for the structures. Like-named read-outs stand apart in the source and are kept apart here.

24 compounds from patent publication US4570005A, “Process for the preparation of 2-arylpropyl ether or thioether derivatives” (priority 1980, dated 1986) can be followed below.

The nature of data set [1]: Test 9: Toxicity Test (acute oral toxicity, mice). The conditions noted are these: mouse, in vivo, po. On the procedure:
A predetermined amount of a solution or suspension of a test compound in corn oil was orally administered to male mice having a body weight of 19 to 23 g (0.2 ml per 10 g of the body weight). After 7 days, the number of killed mice was counted and the influences on the mice were examined.

For data set [2], the system named is sensitive green rice leafhopper (collected at Chigasaki). Kind of data set: whole plant or invertebrate. The data set is classed as in vivo. The following applies: Nephotettix cincticeps, read-out: Mortality (%), Green Rice Leafhopper Collected at Chigasaki. On the procedure:
(§1) To a mixture of 20 parts of the compound of the present invention and 20 parts of Sorpol SM-200 (registered tradename for the product supplied by Toho Chemical Industrial Co., Ltd.) was added 60 parts of xylol, and the mixture was suffciently blended. The obtained emulsifiable concentrate was diluted at a predetermined concentration with distilled water, and the obtained dilution was used.
(§2) Seedlings (having 2 to 3 leaves) of paddy rice were hydroponically cultured in a pot having a diameter of 5 cm. A chemical dilution having a concentration of 100 or 20 ppm, prepared in the same manner as described in Test 1, was applied with a sprayer at a rate of 3 ml per pot. The treated seedlings were air-dried and covered with a metal net cylinder, and female adults of resistant green rice leafhopper (collected at Nakagawara) and sensitive green rice leafhopper (collected at Chigasaki) were set, respectively, free in the pot at a density of 10 adults per pot. After 24 hours, the numbers of killed and living adults were counted and the mortality was calculated. The test was made on three pots and the average value was calculated.

The subject of data set [3] is resistant green rice leafhopper (collected at Nakagawara). Kind of data set: Test 3: Effect on Resistant Green Rice Leafhopper (collected at Nakagawara). It counts as in vivo, Nephotettix cincticeps Uhler (Green rice leafhopper). The following applies: Nephotettix cincticeps, 24 h, read-out: Mortality (%), Green Rice Leafhopper Collected at Nakagawara. On the procedure:
as §1, §2

[4] abbreviates: sensitive female adults, 24 hours.
Where [5] appears, read: 100 ppm, sensitive female adults, 24 hours.

As for `CNC(=O)Oc1cccc(C)c1` [Comparative Compound (e), m-tolyl-N-methylcarbamate, reference compound], in data set [1], the 50% lethal dose (LD50) (commonly the dose at which mortality reaches 50%) at 168 h came to 220 mg/kg. Further, in data set [2] (24 h), the mortality (usually the share of the test organisms that died) at 100 ppm was 80%.
Consider `CC(C)(COCc1cccc(Oc2cccc(Cl)c2)c1)c1ccc(Cl)cc1` [Compound 10, 3-(3-Chlorophenoxy)benzyl 2-(4-chlorophenyl)-2-methylpropyl ether], for which the LD50 at 168 h in data set [1] was more than 500 mg/kg. Also, the mortality at 20 ppm in data set [3] and in data set [2] (setting [4]) was 100% each time. Besides, the mortality at 100 ppm in data set [3] and in data set [2] (setting [5]) was 100% each time.
The compound `Cc1cccc(Oc2cccc(COCC(C)(C)c3ccc(Cl)cc3)c2)c1` [Compound 26, 3-(3-Methylphenoxy)benzyl 2-(4-chlorophenyl)-2-methylpropyl ether] registered an LD50 at 168 h in data set [1] of more than 500 mg/kg. Besides, the mortality at 20 ppm in data set [3] was 85%; in data set [2] (setting [4]) it was 60%. Besides, the mortality at 100 ppm in data set [3] and in data set [2] (setting [5]) was 100% throughout.
Take `COc1ccc(Oc2cccc(COCC(C)(C)c3ccc(OC)cc3)c2)cc1` [Compound 27, 3-(4-Methoxyphenoxy)benzyl 2-(4-methoxyphenyl)-2-methylpropyl ether]: the LD50 at 168 h in data set [1] is more than 500 mg/kg. The mortality at 20 ppm came out at 70% in data set [3] and 50% in data set [2] (setting [4]). Moreover, the mortality at 100 ppm in data set [3] and in data set [2] (setting [5]) was 100% throughout.
In data set [1], `CC(C)(COCc1cccc(Oc2ccc(F)cc2)c1)c1ccccc1` [Compound 28, 3-(4-Fluorophenoxy)benzyl 2-phenyl-2-methylpropyl ether] gave a 50% lethal dose (LD50) at 168 h of more than 500 mg/kg. Further, the mortality at 20 ppm is 90% in data set [3] and 75% in data set [2] (setting [4]). For the same compound, the mortality at 100 ppm in data set [3] and in data set [2] (setting [5]) was 100% each time.
Turning to `COc1ccc(C(C)(C)COCc2cccc(Oc3ccc(F)cc3)c2)cc1` [Compound 32, 3-(4-Fluorophenoxy)benzyl 2-(4-methoxyphenyl)-2-methylpropyl ether], the LD50 at 168 h in data set [1] is more than 500 mg/kg. For the same compound, the mortality at 20 ppm in data set [3] and in data set [2] (setting [4]) was 100% each time. In addition, the mortality at 100 ppm in data set [3] and in data set [2] (setting [5]) was 100% throughout.
Take `COc1ccc(Oc2cccc(COCC(C)(C)c3ccc(Cl)cc3)c2)cc1` [Compound 34, 3-(4-Methoxyphenoxy)benzyl 2-(4-chlorophenyl)-2-methylpropyl ether]: the LD50 at 168 h in data set [1] was more than 500 mg/kg. The mortality at 20 ppm in data set [3] turned out to be 100%; in data set [2] (setting [4]) it was 90%. The mortality at 100 ppm in data set [3] and in data set [2] (setting [5]) was 100% in each case.
Compound `Cc1cccc(C(C)(C)COCc2cccc(Oc3ccc(F)cc3)c2)c1` [Compound 36, 3-(4-Fluorophenoxy)benzyl 2-(3-methylphenyl)-2-methylpropyl ether] came in with an LD50 at 168 h in data set [1] of more than 500 mg/kg. The mortality at 20 ppm stood at 90% in data set [3] and 70% in data set [2] (setting [4]). Moreover, the mortality at 100 ppm in data set [3] came out at 100%; in data set [2] (setting [5]) it was 95%.
Taken in the same sequence, the figures for `COc1ccc(Oc2cccc(COCC(C)(C)c3ccc(Br)cc3)c2)cc1` [Compound 40, 3-(4-Methoxyphenoxy)benzyl 2-(4-bromophenyl)-2-methylpropyl ether] were more than 500 mg/kg, 70%, 50%, 100% and 100%.
Taken in the same sequence, the figures for `CC(C)(COCc1cccc(Oc2ccc(Br)cc2)c1)c1cccc(C(F)(F)F)c1` [Compound 42, 3-(4-Bromophenoxy)benzyl 2-(3-trifluoromethylphenyl)-2-methylpropyl ether] were more than 500 mg/kg, 100%, 95%, 100% and 100%.
`COc1ccc(Oc2cccc(COCC(C)(C)c3ccc(C)cc3)c2)cc1` [Compound 44, 3-(4-methoxyphenoxy)benzyl 2-(4-methylphenyl)-2-methylpropylether] showed an LD50 at 168 h in data set [1] of more than 500 mg/kg. Further, the mortality at 20 ppm in data set [3] was determined as 95%; in data set [2] (setting [4]), 80%. Moreover, the mortality at 100 ppm in data set [3] and in data set [2] (setting [5]) was 100% each time.
The compound `CC(C)c1ccc(C(C)(C)COCc2cccc(Oc3ccccc3)c2)cc1` [Compound 63, 3-Phenoxybenzyl 2-(4-isopropylphenyl)-2-methylpropyl ether] showed an LD50 at 168 h in data set [1] of more than 500 mg/kg. The values for the mortality at 20 ppm in data set [3] and in data set [2] (setting [4]) were 100% and 95%, respectively. In addition, the mortality at 100 ppm in data set [3] and in data set [2] (setting [5]) was 100% in each case.
On to `CC(C)(COCc1cccc(Oc2ccccc2)c1)c1ccc(-c2ccccc2)cc1` [Compound 68, 3-Phenoxybenzyl 2-(4-biphenyl)-2-methylpropyl ether], for which, in data set [1], the median lethal dose (LD50) at 168 h was more than 500 mg/kg. Besides, the mortality at 20 ppm in data set [3] and in data set [2] (setting [4]) was 100% each time. The mortality at 100 ppm in data set [3] and in data set [2] (setting [5]) was 100% each time.
For the compound `CC(C)(COCc1cccc(Oc2ccccc2)c1)c1ccc(OC2CCCCC2)cc1` [Compound 72, 3-Phenoxybenzyl 2-(4-cyclohexyloxyphenyl)-2-methylpropyl ether], the 50% lethal dose (LD50) at 168 h in data set [1] was more than 500 mg/kg. The mortality at 20 ppm turned out to be 80% in data set [3] and 65% in data set [2] (setting [4]). For the same compound, the mortality at 100 ppm in data set [3] and in data set [2] (setting [5]) was 100% each time.
`CC(C)c1ccc(C(C)(C)COCc2cccc(Oc3ccc(F)cc3)c2)cc1` [Compound 77, 3-(4-Fluorophenoxy)benzyl 2-(4-isopropylphenyl)-2-methylpropyl ether]: the 50% lethal dose (LD50) at 168 h in data set [1] is more than 500 mg/kg. Further, the mortality at 20 ppm in data set [3] turned out to be 85%; in data set [2] (setting [4]), 70%. In addition, the mortality at 100 ppm in data set [3] and in data set [2] (setting [5]) was 100% in each case.
In data set [1], `COCc1ccc(C(C)(C)COCc2cccc(Oc3ccccc3)c2)cc1` [Compound 80, 3-Phenoxybenzyl 2-(4-methoxymethylphenyl)-2-methylpropyl ether] showed a median lethal dose (LD50) at 168 h of more than 500 mg/kg.
The same measure, in the same setting: the result for `C=C(C)c1ccc(C(C)(C)COCc2cccc(Oc3ccccc3)c2)cc1` [Compound 87, 3-Phenoxybenzyl 2-(4-isopropenylphenyl)-2-methylpropyl ether] reads more than 500 mg/kg.
For the compound `COc1ccc(C(C)(C)COCc2cccc(Oc3ccccc3)c2)cc1OC` [Compound 88, 3-Phenoxybenzyl 2-(3,4-dimethoxyphenyl)-2-methylpropyl ether], in data set [1], the 50% lethal dose (LD50) at 168 h is more than 500 mg/kg. For the same compound, the mortality at 20 ppm in data set [3] amounted to 80%; in data set [2] (setting [4]) it was 60%. In addition, the mortality at 100 ppm in data set [3] and in data set [2] (setting [5]) was 100% each time.
Turning to `CCOCCOc1ccc(C(C)(C)COCc2cccc(Oc3ccccc3)c2)cc1` [Compound 89, 3-Phenoxybenzyl 2-[4-(2-ethoxyethoxy)phenyl]-2-methylpropyl ether], the LD50 at 168 h in data set [1] was more than 500 mg/kg.
In the case of `CC(C)=Cc1ccc(C(C)(C)COCc2cccc(Oc3ccccc3)c2)cc1` [Compound 91, 3-Phenoxybenzyl 2-[4-(2-methyl-1-propenyl)phenyl]-2-methylpropyl ether], the LD50 at 168 h in data set [1] was more than 500 mg/kg. Further, the mortality at 20 ppm in data set [3] and in data set [2] (setting [4]) was 100% each time. Further, the mortality at 100 ppm in data set [3] and in data set [2] (setting [5]) was 100% throughout.
In data set [1], `C=C(Cl)c1ccc(C(C)(C)COCc2cccc(Oc3ccccc3)c2)cc1` [Compound 102, 3-Phenoxybenzyl 2-[4-(1-chlorovinyl)phenyl]-2-methylpropyl ether] displayed a 50% lethal dose (LD50) at 168 h of more than 500 mg/kg.
Compound `CC(C)(COCc1cccc(Oc2ccccc2)c1)c1ccc(C(=O)OCC(F)(F)F)cc1` [Compound 106, 3-Phenoxybenzyl 2-[4-(2,2,2-trifluoroethoxycarbonyl)-phenyl]-2-methylpropylether] yielded a median lethal dose (LD50) at 168 h in data set [1] of more than 500 mg/kg.
In the case of `C=C(CC)c1ccc(C(C)(C)COCc2cccc(Oc3ccccc3)c2)cc1` [Compound 110, 3-Phenoxybenzyl 2-[4-(1-buten-2-yl)phenyl]-2-methylpropyl ether], in data set [1], the LD50 at 168 h is more than 500 mg/kg.
Same read-out and setting: the result for `CC=C(C)c1ccc(C(C)(C)COCc2cccc(Oc3ccccc3)c2)cc1` [Compound 111, 3-Phenoxybenzyl 2-[4-(2-buten-2-yl)phenyl]-2-methylpropyl ether] reads more than 500 mg/kg.
